For this assay, the target named is Recombinant human Cbl-b (aa 36-427) (Homo sapiens (Human), UniProt Q13191). The assay can be described thus: Cbl-b Biochemical Assay (TR-FRET). The following applies: read-out: TR-FRET hCbl-b IC50. The procedure:
Recombinant human Cbl-b (aa 36-427) was expressed in E. coli, purified and biotinylated in vitro. The protein was diluted to 12 nM in freshly prepared assay buffer consisting of 50 mM HEPES, pH 7.0, 100 mM NaCl, 5 mM MgCl2, 0.01% Triton-X 100, 0.01% BSA and 1 mM DTT. Recombinant human Src (aa 254-536)-[…]-Zap-70 (aa 281-297) fusion protein was expressed in E. coli and purified. Protein was diluted in assay buffer to 2-5 nM and supplemented with ATP to 1 mM. Fluorescein-BODIPY labeled UBE[…]([…])-Ub was prepared by conjugating ubiquitin (Ub) labeled at its N-terminus with Fluorescein-BODIPY maleimide (ThermoFisher Catalog no B10250) to E. coli expressed and purified UBE[…]([…]) [see Dou et al Nature Structural and Molecular Biology 8: 982-987, 2013]. Recombinant human UBE2D2([…]) was expressed in E. coli, purified and ubiquitinated and Bodipy labelled in vitro. Protein was diluted to 200 nM in assay buffer without MgCl2 (or Cisbio PPI buffer). Streptavidin-Terbium was added to 2 nM and EDTA to 10 mM, to provide a binding assay mix. Compounds were dissolved in DMSO and diluted to prepare a ten-point dilution series. 100 nl of each compound concentration was dispensed in duplicate in a 384 well black assay plate using acoustic dispensing. Wells for maximum signal controls received 100 nl of DMSO only and wells for minimum signal controls received 100 nl of a reference inhibitor compound at a final assay concentration of […] to produce 100% inhibition. 5 μl of diluted Cbl-b enzyme was added to all wells of the assay plate and incubated at RT for 30-60 min. The enzyme assay was initiated by addition of 5 μl of Src-Zap/ATP mix to all wells, and the plate incubated at RT for 60 min. The enzyme reaction was terminated and the binding reaction was initiated by adding 10 μl of binding assay mix to all wells and incubating the plate at RT for 60 min prior to assay read. Final assay conditions consisted of 6 nM Cbl-b, 1-2.5 nM Src-Zap70, 0.5 mM ATP, 1% (v/v) DMSO (enzyme reaction) and 100 nM UBE2D2([…])-Ub-FL-BODIPY, 5 mM EDTA, 1 nM Streptavidin-Tb (binding reaction). The HTRF assay signal was measured at 520 nm on an Envision plate reader, with reference signal at 485 or 620 nm. Data was normalized using maximum and minimum assay controls: % Inhibition=100-(100*((maximum control)-unknown)/(maximum control-minimum control)). A 4-parameter dose-response equation was used to fit the normalized dose-response data and derive an IC50 for test compounds.
(In TR-FRET formats the signal depends on donor and acceptor labels being close together.)

pIC50: −log10 of the molar value.

Sequence of Recombinant human Cbl-b (aa 36-427) (Q13191 36-427): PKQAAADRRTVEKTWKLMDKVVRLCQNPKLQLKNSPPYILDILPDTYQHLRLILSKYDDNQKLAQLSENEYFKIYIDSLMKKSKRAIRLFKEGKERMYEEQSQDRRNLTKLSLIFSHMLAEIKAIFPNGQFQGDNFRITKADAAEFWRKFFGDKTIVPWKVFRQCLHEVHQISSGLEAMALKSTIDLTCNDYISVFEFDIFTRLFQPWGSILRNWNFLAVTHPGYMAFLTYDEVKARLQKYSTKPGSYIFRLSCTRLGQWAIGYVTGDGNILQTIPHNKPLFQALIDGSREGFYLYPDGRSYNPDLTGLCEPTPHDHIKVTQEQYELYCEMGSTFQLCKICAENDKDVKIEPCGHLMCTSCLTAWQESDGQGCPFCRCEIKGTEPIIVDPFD

As to `Cn1cnnc1-c1cc(C(N)=O)ccc1-c1cccc(N2Cc3c(cccc3C(F)(F)F)C2=O)c1` [ACD-1, 2-(4-Methyl-4H-1,2,4-triazol-3-yl)-3′-(1-oxo-4-(trifluoromethyl)isoindolin-2-yl)-[1,1′-biphenyl]-4-carboxamide], the negative logarithm of the IC50 (pIC50) (usually the negative decadic logarithm of the IC50, by convention in mol/L) was 5.00 to 6.00.

With `Cn1cnnc1-c1ccccc1-c1cc(N2Cc3c(cccc3C(F)(F)F)C2=O)nc(C(F)(F)F)c1` [Example J-4, 2-(4-(2-(4-Methyl-4H-1,2,4-triazol-3-yl)phenyl)-6-(trifluoromethyl)pyridin-2-yl)-4-(trifluoromethyl)isoindolin-1-one], the negative-log IC50 (pIC50) is 4.30 to 5.00.

For `O=C1c2cccc(C(F)(F)F)c2CN1c1cccc(-c2ccccc2-c2nnco2)c1` [ABA-4, 2-(2′-(1,3,4-Oxadiazol-2-yl)-[1,1′-biphenyl]-3-yl)-4-(trifluoromethyl)isoindolin-1-one], the negative-log IC50 (pIC50) was 4.30 to 5.00.

For the molecule `C[C@@H]1CCCN(Cc2cc3c(c(C(F)(F)F)c2)CN(c2cccc(-c4ccccc4-c4nncn4C)c2)C3=O)C1` [Example S-2, (R)-2-(2′-(4-Methyl-4H-1,2,4-triazol-3-yl)-[1,1′-biphenyl]-3-yl)-6-((3-methylpiperidin-1-yl)methyl)-4-(trifluoromethyl)isoindolin-1-one], the pIC50 is 6.00 to 6.70.

For the molecule `CCNc1cc(-c2c(-c3nncn3C)cnn2C)cc(N2Cc3c(cccc3C(F)(F)F)C2=O)n1` [ACO-1, 2-(6-(Ethylamino)-4-(1-methyl-4-(4-methyl-4H-1,2,4-triazol-3-yl)-1H-pyrazol-5-yl)pyridin-2-yl)-4-(trifluoromethyl)isoindolin-1-one], the pIC50 is ≥ 6.70.

`Cn1cnnc1-c1cnn(C)c1-c1cccc(NC(=O)c2cc(=O)n(C)c(C3CC3)n2)c1` [AAE-6, 2-Cyclopropyl-1-methyl-N-[3-[2-methyl-4-(4-methyl-1,2,4-triazol-3-yl)pyrazol-3-yl]phenyl]-6-oxopyrimidine-4-carboxamide]: the negative-log IC50 (pIC50) is 4.30 to 5.00.

`CCNc1cc(-c2ccc(F)cc2-c2nncn2C)cc(N2Cc3c(cccc3C(F)(F)F)C2=O)n1` [ACM-8, 2-(6-(Ethylamino)-4-(4-fluoro-2-(4-methyl-4H-1,2,4-triazol-3-yl)phenyl)pyridin-2-yl)-4-(trifluoromethyl)isoindolin-1-one]: the negative-log IC50 (pIC50) was ≥ 6.70.

Take `COC(=O)c1cc(-c2ccccc2-c2nncn2C)cc(N2Cc3c(cccc3C(F)(F)F)C2=O)c1` [Example H-5, Methyl 2′-(4-methyl-4H-1,2,4-triazol-3-yl)-5-(1-oxo-4-(trifluoromethyl)isoindolin-2-yl)-[1,1′-biphenyl]-3-carboxylate]: the negative-log IC50 (pIC50) was 4.30 to 5.00.

Regarding `CCNc1cc(-c2ccccc2-c2nncn2C)cc(N2Cc3c(cc(CN[C@@H]4CCC[C@@H]4O)cc3C(F)(F)F)C2=O)n1` [AQ-1, 2-(6-(Ethylamino)-4-(2-(4-methyl-4H-1,2,4-triazol-3-yl)phenyl)pyridin-2-yl)-6-((((1R,2S)-2-hydroxycyclopentyl)amino)methyl)-4-(trifluoromethyl)isoindolin-1-one], the pIC50 is ≥ 6.70.

Regarding `CCNc1cc(-c2c(-c3nncn3C)cnn2C)cc(N2Cc3c(cc(CN4CC[C@H](F)C4)cc3C(F)(F)F)C2=O)n1` [ACB-1, (S)-2-(6-(Ethylamino)-4-(1-methyl-4-(4-methyl-4H-1,2,4-triazol-3-yl)-1H-pyrazol-5-yl)pyridin-2-yl)-6-((3-fluoropyrrolidin-1-yl)methyl)-4-(trifluoromethyl)isoindolin-1-one], the negative logarithm of the IC50 (pIC50) is ≥ 6.70.

As to `CCNc1cc(-c2c(-c3nncn3C)cnn2C)cc(N2Cc3c(cc(C(=O)N4CC[C@@H](O)C4)cc3C(F)(F)F)C2=O)n1` [ACT-2, (R)-2-(6-(Ethylamino)-4-(1-methyl-4-(4-methyl-4H-1,2,4-triazol-3-yl)-1H-pyrazol-5-yl)pyridin-2-yl)-6-(3-hydroxypyrrolidine-1-carbonyl)-4-(trifluoromethyl)isoindolin-1-one], the pIC50 was ≥ 6.70.

As for `Cn1cnnc1-c1ccccc1-c1cccc(N2Cc3c(cc(CN[C@H]4CCC[C@H]4O)cc3C(F)(F)F)C2=O)c1` [AA-2, 6-((((1S,2R)-2-Hydroxycyclopentyl)amino)methyl)-2-(2′-(4-methyl-4H-1,2,4-triazol-3-yl)-[1,1′-biphenyl]-3-yl)-4-(trifluoromethyl)isoindolin-1-one], the pIC50 is ≥ 6.70.

On to `Cn1cnnc1-c1ccccc1-c1cc(CO)cc(N2Cc3c(cccc3C(F)(F)F)C2=O)c1` [Example N-5, 2-(5-(Hydroxymethyl)-2′-(4-methyl-4H-1,2,4-triazol-3-yl)-[1,1′-biphenyl]-3-yl)-4-(trifluoromethyl)isoindolin-1-one], for which the pIC50 was 5.00 to 6.00.

Regarding `Cn1cnnc1-c1ccccc1-c1cc(Cl)nc(N2Cc3c(cccc3C(F)(F)F)C2=O)c1` [AAT-1, 2-(6-Chloro-4-(2-(4-methyl-4H-1,2,4-triazol-3-yl)phenyl)pyridin-2-yl)-4-(trifluoromethyl)isoindolin-1-one], the negative-log IC50 (pIC50) was 6.00 to 6.70.

In the case of `Cn1cnnc1-c1ccccc1-c1cccc(N2Cc3c(cc(CO)cc3C(F)(F)F)C2=O)c1` [Example P-2, 6-(Hydroxymethyl)-2-(2′-(4-methyl-4H-1,2,4-triazol-3-yl)-[1,1′-biphenyl]-3-yl)-4-(trifluoromethyl)isoindolin-1-one], the pIC50 is 6.00 to 6.70.

`CCNc1cc(-c2c(-c3nncn3C)cnn2C)cc(N2Cc3c(cccc3C(F)(F)F)C2=O)c1` [ABX-6, 2-[3-(Ethylamino)-5-[2-methyl-4-(4-methyl-1,2,4-triazol-3-yl)pyrazol-3-yl]phenyl]-4-(trifluoromethyl)-3H-isoindol-1-one]: the pIC50 was ≥ 6.70.

Turning to `Cn1c(O)nnc1-c1cnccc1-c1cccc(N2Cc3c(cccc3C(F)(F)F)C2=O)c1` [AAS-6, 2-(3-(3-(5-Hydroxy-4-methyl-4H-1,2,4-triazol-3-yl)pyridin-4-yl)phenyl)-4-(trifluoromethyl)isoindolin-1-one], the negative-log IC50 (pIC50) was 4.30 to 5.00.

`Cn1cnnc1-c1ccccc1-c1cccc(NC(=O)c2cc(=O)n(CCN3CCCC3)c(C3CC3)n2)c1` [ABM-1, 2-Cyclopropyl-N-(2′-(4-methyl-4H-1,2,4-triazol-3-yl)-[1,1′-biphenyl]-3-yl)-6-oxo-1-(2-(pyrrolidin-1-yl)ethyl)-1,6-dihydropyrimidine-4-carboxamide]: the negative logarithm of the IC50 (pIC50) was 5.00 to 6.00.

For `CN(C)c1cc(-c2ccccc2-c2nncn2C)cc(N2Cc3c(cc(CO)cc3C(F)(F)F)C2=O)n1` [AD-4, 2-(6-(dimethylamino)-4-(2-(4-methyl-4H-1,2,4-triazol-3-yl)phenyl)pyridin-2-yl)-6-(hydroxymethyl)-4-(trifluoromethyl)isoindolin-1-one], the pIC50 was 6.00 to 6.70.

Turning to `CCNc1cc(-c2ccccc2-c2nncn2C)cc(N2Cc3c(cc(CN4CCC[C@@H](C)C4)cc3C(F)(F)F)C2=O)n1` [AE-2, (R)-2-(6-(Ethylamino)-4-(2-(4-methyl-4H-1,2,4-triazol-3-yl)phenyl)pyridin-2-yl)-6-((3-methylpiperidin-1-yl)methyl)-4-(trifluoromethyl)isoindolin-1-one], the pIC50 is ≥ 6.70.

For the molecule `CCNc1cc(-c2ccccc2-c2nncn2C)cc(N2Cc3c(cc(CN4CCC(F)(F)C(C)C4)cc3C(F)(F)F)C2=O)n1` (stereo not drawn) [AK-2, 6-((4,4-Difluoro-3-methylpiperidin-1-yl)methyl)-2-(6-(ethylamino)-4-(2-(4-methyl-4H-1,2,4-triazol-3-yl)phenyl)pyridin-2-yl)-4-(trifluoromethyl)isoindolin-1-one], the pIC50 is ≥ 6.70.

For `Cn1cc(-c2nncn2C)c(-c2cccc(N3Cc4c(cccc4C(F)(F)F)C3=O)c2)n1` [AAL-8, 2-[3-[1-Methyl-4-(4-methyl-1,2,4-triazol-3-yl)pyrazol-3-yl]phenyl]-4-(trifluoromethyl)-3H-isoindol-1-one], the negative logarithm of the IC50 (pIC50) is 4.30 to 5.00.

In the case of `CCNc1cc(-c2ccccc2-c2nncn2C)cc(N2Cc3c(cc(CN[C@@H]4CCC[C@H]4O)cc3C(F)(F)F)C2=O)n1` [AO-1, 2-(6-(Ethylamino)-4-(2-(4-methyl-4H-1,2,4-triazol-3-yl)phenyl)pyridin-2-yl)-6-((((1R,2R)-2-hydroxycyclopentyl)amino)methyl)-4-(trifluoromethyl)isoindolin-1-one], the pIC50 is ≥ 6.70.

Regarding `CCNc1cc(-c2c(-c3nncn3C)cnn2C)cc(NC(=O)c2cc(CN3CCC4(CC4)C3)cc(C3CC3)n2)n1` [ABF-8, 4-((5-Azaspiro [2.4]heptan-5-yl)methyl)-6-cyclopropyl-N-(6-(ethylamino)-4-(1-methyl-4-(4-methyl-4H-1,2,4-triazol-3-yl)-1H-pyrazol-5-yl)pyridin-2-yl)picolinamide], the negative-log IC50 (pIC50) is ≥ 6.70.

The values above are taken from US12325697B2 (Nimbus Clio, Inc., priority 2021, dated 2025).
